Each structure is given as a SMILES string.

The target of one assay is wild-type FKBP12 (Homo sapiens, UniProt P62942). The settings on record: refs (32, 36); cited from earlier work.
Assay [1] concerns Cre-mediated GFP expression in HEK293T cells. The assay is described as follows: Inducible Cre site-specific DNA recombination, LoxP-STOP-LoxP-GFP reporter. Type of assay: cell-based, human. The protocol:
Fluorescence assay using flow cytometry analysis. Cells were treated with 0.05% Trpsin EDTA (Thermo Fisher Scientific no. 25300054) or TrypLE (Thermo Fisher Scientific no. 12605028) after transfection and centrifuged at 3000 g for 5 min. Supernatant was removed and the cell pellet was resuspended with 200 μL phosphate buffered saline (PBS) without calcium and magnesium (Thermo Fisher Scientific no. 10010023). Cells were transferred into 12×75 mm flow tubes (Global Scientific no. 110410). Cells were analyzed by MA900 flow cytometry (SONY). 405 nm laser (FL6 filter) was used for testing the BFP channel. 488 nm (FL1 filter) was used for testing the EYFP and GFP channel. Automated alignment using Automatic Setup Beads kit (SONY no. LE-B3001) is performed before running samples. In FIGS. 3A, 3B, and 17, experiments were performed under 2% FSC, 17% BSC, 24% FL1. In FIG. 18, experiments were performed under 2% FSC, 17% BSC, 27% FL1. All the other experiments were performed under 2% FSC, 17% BSC, 24% FL1 and 27% FL6. Flow cytometry data was processed and analyzed by FlowJo 10. Events were first gated with forward scatter-Area (FSC-A) and side scatter-Area (SSC-A) to select viable cells and remove the debris and dead cells. Cells were further gated with FSC-A and FSC-Height (FSC-H) for selecting single cells. The mean intensity of the reporter fluorescent protein (BFP and EYFP) in viable and single cell populations were calculated by FlowJo 10 as the mean of FL6-A and FL1-A. When calculating the fold change of relative fluorescence units (RFU), the relative fluorescence units of EYFP was calculated by dividing the mean of fluorescence intensity of EYFP with the mean of BFP fluorescence intensity for normalization as the following formula: […]
Transfection and microscopy. […]

Chain of wild-type FKBP12 (P62942 whole entry, species assumed): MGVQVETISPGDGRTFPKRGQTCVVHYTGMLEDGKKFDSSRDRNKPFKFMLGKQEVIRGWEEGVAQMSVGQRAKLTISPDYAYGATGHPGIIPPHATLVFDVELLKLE

With `CC[C@H](C(=O)N1CCCC[C@H]1C(=O)O[C@H](CCc1ccc(OC)c(OC)c1)c1ccccc1OCC(=O)NCCCCCCOc1cccc2c1C(=O)N(C1CCC(=O)NC1=O)C2=O)c1cc(OC)c(OC)c(OC)c1` (stereo partly drawn) [dTAG-13], the “degradation of wild-type FKBP12” value on wild-type FKBP12 is “do not degrade wild-type FKBP12”. In addition, the “GFP signal, two-layer genetic circuit driving Cre” value in assay [1] (100 nM dTAG-13 or 1 μM dBRD9, 2 days, FIGS. 3A and 17) was “strong GFP signal”. In assay [1] (FIG. 3B), the “GFP expression, three-layer circuit (Dre, Rox-STOP-Rox-Cre)” value is listed as “robust GFP expression only in the presence of dTAG-13”.

Source of the values: patent publication US20250382631A1, “PROTAC-CID SYSTEMS FOR USE IN MULTIPLEX GENE REGULATION” (William Marsh Rice University, priority 2022, published 2025).
